Reference: the NIST ThermoML archive (doi:10.1016/j.jct.2016.03.021)
± gives the expanded uncertainty stated by the source.

Assay: wn = mass fraction of the nth substance listed
Details: Liquid; for mass density: Vibrating tube method

NCCO [2-aminoethan-1-ol] + O
mass density [kg/m3]
Details	w1 = 0.1001	w1 = 0.2	w1 = 0.3005	w1 = 0.4
333.15 K, 30000 kPa	–	–	1003.5 ± 0.7	1006.7 ± 0.7
333.15 K, 40000 kPa	1002.7 ± 0.7	1004.5 ± 0.7	1007.3 ± 0.7	1010.4 ± 0.7
333.15 K, 50000 kPa	1006.5 ± 0.7	1008 ± 0.7	1010.8 ± 0.7	1013.8 ± 0.7
333.15 K, 60000 kPa	1010.4 ± 0.7	1011.7 ± 0.7	1014.4 ± 0.7	1017.3 ± 0.7
333.15 K, 70000 kPa	1014.1 ± 0.7	1015.2 ± 0.7	1017.8 ± 0.7	1020.7 ± 0.7
333.15 K, 80000 kPa	1017.7 ± 0.7	1018.7 ± 0.7	1021.1 ± 0.7	1024 ± 0.7
333.15 K, 90000 kPa	1021.3 ± 0.7	1022.1 ± 0.7	1024.4 ± 0.7	1027.1 ± 0.7
333.15 K, 100000 kPa	1024.8 ± 0.7	1025.5 ± 0.7	1027.7 ± 0.7	1030.3 ± 0.7
333.15 K, 110000 kPa	1028.1 ± 0.7	1028.8 ± 0.7	1031 ± 0.7	1033.5 ± 0.7
333.15 K, 120000 kPa	1031.7 ± 0.7	1032.2 ± 0.7	1034.2 ± 0.7	1036.7 ± 0.7
353.15 K, 100 kPa	974.7 ± 0.7	976.7 ± 0.7	979.2 ± 0.7	981.9 ± 0.7
353.15 K, 500 kPa	974.7 ± 0.7	976.7 ± 0.7	979.4 ± 0.7	982 ± 0.7
353.15 K, 1000 kPa	975 ± 0.7	976.9 ± 0.7	979.6 ± 0.7	982.2 ± 0.7
353.15 K, 2000 kPa	975.4 ± 0.7	977.4 ± 0.7	980 ± 0.7	982.6 ± 0.7
353.15 K, 5000 kPa	976.7 ± 0.7	978.6 ± 0.7	981.2 ± 0.7	983.9 ± 0.7
353.15 K, 10000 kPa	978.9 ± 0.7	980.8 ± 0.7	983.3 ± 0.7	986 ± 0.7
353.15 K, 15000 kPa	981.1 ± 0.7	982.9 ± 0.7	985.4 ± 0.7	988 ± 0.7
353.15 K, 20000 kPa	983.2 ± 0.7	984.9 ± 0.7	987.4 ± 0.7	990 ± 0.7
353.15 K, 30000 kPa	987.4 ± 0.7	988.9 ± 0.7	991.4 ± 0.7	993.9 ± 0.7
353.15 K, 40000 kPa	991.4 ± 0.7	992.9 ± 0.7	995.2 ± 0.7	997.7 ± 0.7
353.15 K, 50000 kPa	995.4 ± 0.7	996.7 ± 0.7	999 ± 0.7	1001.4 ± 0.7
353.15 K, 60000 kPa	999.4 ± 0.7	1000.6 ± 0.7	1002.7 ± 0.7	1005.1 ± 0.7
353.15 K, 70000 kPa	1003.1 ± 0.7	1004.2 ± 0.7	1006.2 ± 0.7	1008.6 ± 0.7
353.15 K, 80000 kPa	1006.9 ± 0.7	1007.7 ± 0.7	1009.8 ± 0.7	1012.1 ± 0.7
353.15 K, 90000 kPa	1010.5 ± 0.7	1011.3 ± 0.7	1013.1 ± 0.7	1015.3 ± 0.7
353.15 K, 100000 kPa	1014.1 ± 0.7	1014.7 ± 0.7	1016.6 ± 0.7	1018.7 ± 0.7
353.15 K, 110000 kPa	1017.7 ± 0.7	1018.2 ± 0.7	1020 ± 0.7	1022.1 ± 0.7

viscosity [mPa·s]
Details	333.15 K	353.15 K
93 kPa, Concentric cylinders viscometry, w1 = 0.3	–	0.764 ± 0.016
93 kPa, Concentric cylinders viscometry, w1 = 0.4	–	0.9518 ± 0.02
100 kPa, Falling or rolling sphere viscometry, w1 = 0.3005	–	0.746 ± 0.023
100 kPa, Falling or rolling sphere viscometry, w1 = 0.4001	–	0.942 ± 0.029
101 kPa, Falling or rolling sphere viscometry, w1 = 0.3	–	0.746 ± 0.023
101 kPa, Falling or rolling sphere viscometry, w1 = 0.4	–	0.942 ± 0.029
5000 kPa, Falling or rolling sphere viscometry, w1 = 0.3005	–	0.748 ± 0.023
5000 kPa, Falling or rolling sphere viscometry, w1 = 0.4001	–	0.944 ± 0.029
10000 kPa, Falling or rolling sphere viscometry, w1 = 0.3005	–	0.755 ± 0.023
10000 kPa, Falling or rolling sphere viscometry, w1 = 0.4001	–	0.957 ± 0.03
20000 kPa, Falling or rolling sphere viscometry, w1 = 0.3005	–	0.768 ± 0.024
20000 kPa, Falling or rolling sphere viscometry, w1 = 0.4001	–	0.975 ± 0.03
30000 kPa, Falling or rolling sphere viscometry, w1 = 0.3005	–	0.777 ± 0.024
30000 kPa, Falling or rolling sphere viscometry, w1 = 0.4001	–	0.989 ± 0.031
40000 kPa, Falling or rolling sphere viscometry, w1 = 0.1001	0.63 ± 0.019	–
40000 kPa, Falling or rolling sphere viscometry, w1 = 0.2	0.815 ± 0.025	–
40000 kPa, Falling or rolling sphere viscometry, w1 = 0.3005	1.115 ± 0.034	0.787 ± 0.024
40000 kPa, Falling or rolling sphere viscometry, w1 = 0.4001	1.475 ± 0.046	1.006 ± 0.031
60000 kPa, Falling or rolling sphere viscometry, w1 = 0.1001	0.639 ± 0.02	–
60000 kPa, Falling or rolling sphere viscometry, w1 = 0.2	0.829 ± 0.026	0.607 ± 0.019
60000 kPa, Falling or rolling sphere viscometry, w1 = 0.3005	1.14 ± 0.035	0.807 ± 0.025
60000 kPa, Falling or rolling sphere viscometry, w1 = 0.4001	1.518 ± 0.047	1.039 ± 0.032
80000 kPa, Falling or rolling sphere viscometry, w1 = 0.1001	0.646 ± 0.02	–
80000 kPa, Falling or rolling sphere viscometry, w1 = 0.2	0.844 ± 0.026	0.619 ± 0.019
80000 kPa, Falling or rolling sphere viscometry, w1 = 0.3005	1.165 ± 0.036	0.828 ± 0.026
80000 kPa, Falling or rolling sphere viscometry, w1 = 0.4001	1.559 ± 0.048	1.068 ± 0.033
100000 kPa, Falling or rolling sphere viscometry, w1 = 0.1001	0.655 ± 0.02	–
100000 kPa, Falling or rolling sphere viscometry, w1 = 0.2	0.859 ± 0.027	0.632 ± 0.02
100000 kPa, Falling or rolling sphere viscometry, w1 = 0.3005	1.189 ± 0.037	0.847 ± 0.026
100000 kPa, Falling or rolling sphere viscometry, w1 = 0.4001	1.6 ± 0.049	1.097 ± 0.034
120000 kPa, Falling or rolling sphere viscometry, w1 = 0.1001	0.663 ± 0.02	–
120000 kPa, Falling or rolling sphere viscometry, w1 = 0.2	0.874 ± 0.027	–
120000 kPa, Falling or rolling sphere viscometry, w1 = 0.3005	1.211 ± 0.037	–
120000 kPa, Falling or rolling sphere viscometry, w1 = 0.4001	1.645 ± 0.051	–
